Key:
[1] = powder, cited from earlier work
[2] = tested on: lashes and hair around the eyes; experiment: Study of lashes and hair around the eyes of glaucoma patients administering bimatoprost in only one eye (slit lamp biomicroscope); type: in vivo, human; conditions: one drop daily of 0.03% ophthalmic solution to one eye
Protocol: A study is initiated to systematically evaluate the appearance of lashes and hair around the eyes of patients who are administering bimatoprost in only one eye. The study involves 10 subjects, 5 male, 5 female, average age 70 years, (ranging from 50-94 years). All patients have glaucoma. Each subject is treated daily by the topical application of one drop of bimatoprost at a dosage of 1.5 µg/ml/eye/day (0.03%, by weight, ophthalmic solution, sold under the names Lumigan® and Latisse® by Allergan, Irvine, Calif., U.S.A.) to the region of one eye by instilling the drop onto the surface of the eye. The region of the fellow control eye is not treated with bimatoprost and served as a control.
In the course of treatment with eye drops, there is typically spontaneous tearing, and excess fluid from the drops and associated tears gathers at the lid margins. In the course of wiping the drug containing fluid from the lid margins and adjacent lid, a thin film of the fluid is routinely spread to contact the adjacent skin of the lid area.
The study is limited to subjects who have administered bimatoprost to one eye for more than 3 months. The mean duration of exposure to bimatoprost prior to assessing the parameter of lash growth between the control and study eye is 129 days (range 90-254 days). Observations are made under high magnification at the slit lamp biomicroscope. Documentation of differences between the control and treatment areas is accomplished using a camera specially adapted for use with the slit lamp biomicroscope. The results of the observations are as follows: Length of lashes: Increased length of eyelashes is regularly observed on the side treated with bimatoprost. The difference in length varies from approximately 10% to as much as 30%. […] In areas where there are a large number of lashes in the control eye, the increased number of lashes in the bimatoprost-treated eye gave the lashes on the treated side a more thickly matted overall appearance. […] These long, thick lash-like hairs were present in the central portion of the lids of several patients in a linear arrangement just above the lash line. Hairs are present at similar locations in the control eyes but are by contrast thinner or more fine in appearance, have less luster and pigment and are more flat against the skin of the lid typical of vellus or intermediate hairs. In several patients, lash-like terminal hairs grow luxuriantly in the medial canthal area in the treated eye. In the corresponding control eye, vellus hairs are seen at the same location. Lash-like hairs are also present in the lateral canthal area of the treated eye but not the control eye in several subjects. […]

[3] = tested on: lashes and adjacent hairs; experiment: Daily-practice observation of lashes in glaucoma patients treated with bimatoprost in one eye; type: in vivo, human
Excerpt: In the course of treating patients having glaucoma, treatment may only be appropriate in one eye. […] The lash appearance on the lids of the treated eye would have appeared quite attractive if it represented a bilateral phenomenon. Because of its asymmetric nature, the long lashes on one side could be construed as disturbing from a cosmetic standpoint. Because of the very unusual appearance a systematic examination of other patients who were taking bimatoprost in only one eye was made. It soon became apparent that this altered appearance was not an isolated finding. […] Definite differences could be identified to varying degrees in the lashes and adjacent hairs of all patients who were taking the drug on a unilateral basis for longer than 6 months. These findings were totally unexpected and surprising.
The changes in the lashes after topical application of bimatoprost were apparent on gross inspection in several patients once attention was focused on the issue. In those with light colored hair and lashes, the differences were only seen easily with the aid of the high magnification and lighting capabilities of the slit lamp biomicroscope. In the course of a glaucoma follow up examination, attention is generally immediately focused on the eye itself. […]

Which results are given for `CCNC(=O)CCC/C=C\C[C@@H]1[C@@H](/C=C/[C@@H](O)CCc2ccccc2)[C@H](O)C[C@@H]1O` [Bimatoprost, (Z)-7-[(1R,2R,3R,5S)-3,5Dihydroxy-2-[(1E,3S)-3-hydroxy-5-phenyl-1-pentenyl]cyclopentyl]-5-N-ethylheptenamide]?
solubility in ethyl alcohol ([1]; ethyl alcohol): very soluble; solubility in methyl alcohol ([1]; methyl alcohol): very soluble; solubility in water ([1]; water): slightly soluble; Growth of vellus hair on lids, treated vs control eye ([2]; areas below and lateral to the lower lid): increased in number, appear more robust and are much longer and thicker; Perpendicular angulation of hairs, treated vs control eye ([2]; lash-like hairs above lash line and in canthal areas): leave the surface of the skin at a more acute angle; Number of lashes, treated vs control eye ([2]; mean exposure 129 days, fellow eye untreated): Increased numbers of lashes; Auxiliary lash-like hair growth, treated vs control eye ([2]; several patients): apparent increase in lash-like hair in transitional areas; Lash appearance in treated eye vs non-treated eye ([3]; glaucoma patient treated in one eye): longer, thicker and fuller in the treated eye than in the non-treated eye; Hypertrichosis in the region of treatment ([3]; patients treated in or around the eye): regularly develop hypertrichosis

Reference: patent publication US20160136071A1, “Topical bimatoprost for promoting hair growth containing formulations” (priority 2013, published 2016)
